Earlier results in patent US20220331448A1, “COMPOSITIONS AND METHODS FOR TREATING SUCCINIC SEMIALDEHYDE DEHYDROGENASE DEFICIENCY (SSADHD)” (Washington State University, priority 2018, published 2022).

Assays:
[1] = target: T1, GABA-transaminase (Mus musculus, UniProt P61922); conditions: daily doses ˜10 mg/kg or osmotic minipumps; cited from earlier work
T1 construct: from tissue; host or cells: living mice (CNS), endogenous enzyme

[2] = test system: aldh5a1−/− mice; conditions: cited from earlier work

T1 sequence (P61922 29-500): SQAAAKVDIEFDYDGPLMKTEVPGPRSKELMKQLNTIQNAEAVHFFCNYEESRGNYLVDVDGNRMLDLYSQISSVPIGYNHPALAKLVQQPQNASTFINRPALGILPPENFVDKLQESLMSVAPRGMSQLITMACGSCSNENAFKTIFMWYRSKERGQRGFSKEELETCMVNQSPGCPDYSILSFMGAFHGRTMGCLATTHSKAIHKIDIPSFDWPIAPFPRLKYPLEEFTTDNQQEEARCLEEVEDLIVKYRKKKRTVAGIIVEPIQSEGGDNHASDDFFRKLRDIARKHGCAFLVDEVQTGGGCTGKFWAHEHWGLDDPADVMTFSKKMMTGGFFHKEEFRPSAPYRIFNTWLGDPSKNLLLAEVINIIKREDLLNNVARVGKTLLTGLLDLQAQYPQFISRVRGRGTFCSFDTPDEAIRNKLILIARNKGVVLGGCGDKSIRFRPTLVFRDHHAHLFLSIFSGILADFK

C=CC(N)CCC(=O)O (centres unmarked) [vigabatrin]
GABA in the CNS [1]: significantly elevated | rescue from premature lethality / lifespan extension [2]: rescue
